Measured values from patent US20060018921A1, “Histone deacetylase inhibitors and cognitive applications” (priority 2004, published 2006).
Entries after “also recorded” stand apart in the source; their conditions may differ.

Legend:
[1] = test system: histone H4 (Lys5/Lys8/Lys12/Lys16); assay: Acetylation of histone H4, acute hippocampal slices, area CA1; details: slices treated 1 h; TSA 1.65 μM
histone H3 (Lys14) = assay: Acetylation of histone H3, acute hippocampal slices, area CA1; details: slices treated 1 h; PDA 3 μM, FSK 50 μM with 100 μM Ro20-1724, 4αP 3 μM, dFSK 50 μM with 100 μM Ro20-1724, U0126 20 μM, PD98059 50 μM, TSA 1.65 μM
[2] = mouse model; Takahashi et al., 1996; cited from earlier work
[3] = test system: Schaffer-collateral synapses; assay: Slice electrophysiology, basal synaptic transmission (baseline fEPSP, input/output, paired-pulse facilitation, tetanus depolarization); format: cell-based, Sprague-Dawley rats
NMDA-Rs = assay: NMDA-R mediated synaptic transmission in slices with CNQX; format: cell-based, Sprague-Dawley rats; details: TSA 1.65 μM over 3 h; CNQX 20 μM, ACSF with 4 mM CaCl2 and no MgCl2
Procedure: In FIG. 8A, slices were exposed to the AMPA-R antagonist CNQX (20 μM) and perfused with an ACSF containing 4 mM CaCl2 and no MgCl2. The resulting field potentials represent NMDA-R mediated synaptic transmission (English and Sweatt, 1997). […] Representative traces immediately before (dashed) and 186 min after (solid) introduction of TSA are shown. Calibration bar indicates 5 msec and 1 mV. In FIG. 8B, slices were exposed to both TSA (1.65 μM) and the NMDA-R antagonist AP5 (50 μM) 20 min prior to LTP induction. After induction of LTP, the AP5 was washed out but slices were still exposed to TSA. Induction of LTP in the presence of TSA was blocked by AP5 (n=8, F[89,612]=0.5, p<1). […] In FIG. 8C, depolarization was measured during a 100 Hz tetanus in slices treated with either vehicle (0.05% EtOH, n=10) or TSA (1.65 μM, n=10) for 20 min. […]
In another series of studies, the present inventors investigated the possibility that TSA was affecting properties of NMDA-Rs. To directly measure any long-term affects of TSA on NMDA-Rs, field potentials were recorded in the presence of the AMPA-R antagonist CNQX to isolate the NMDA-R-dependent component of synaptic transmission. […] To further explore the potential affects of TSA on synaptic transmission, we measured the depolarization that occurs during the 100 Hz tetanus used to induce LTP.

ERK2 = assay: P-ERK2 western blot, acute hippocampal slices, area CA1; details: slices treated 1 h; PDA 3 μM, FSK 50 μM with 100 μM Ro20-1724, U0126 20 μM, PD98059 50 μM, 4αP 3 μM, dFSK 50 μM with 100 μM Ro20-1724, TSA
ras transformed cells = details: Taunton et al., 1996; cited from earlier work
animals deficient in CBP = details: infusion directly into the brain of animals deficient in CBP; Korzus et al., Alarcon et al. (2004); cited from earlier work

Q: For `CC(/C=C/C(=O)NO)=C\[C@@H](C)C(=O)c1ccc(N(C)C)cc1` [TSA, trichostatin A], which “histone H4 acetylation” value [1] is on record?
A: increased the acetylation of histone H4; also recorded: significant effect on H4 acetylation

Q: What about the “histone H3 acetylation” value (histone H3 (Lys14)) of the same compound?
A: significantly increased acetylation of H3; also recorded: increased acetylation of histone H3

Q: And the immunosuppression [2]?
A: induces immunosuppression in a mouse model

Q: And the “input/output relationships and PPF, slices treated with DRB vs DRB and TSA” value ([3]; 20 min and 3 h after application, data not shown)?
A: no significant differences in basal synaptic transmission

Q: And the “depolarization during 100 Hz tetanus, area under the curve” value ([3]; TSA 1.65 μM for 20 min vs vehicle 0.05% EtOH)?
A: No significant difference in area under the curve

Q: And the input/output relationships ([3]; TSA for 20 min vs vehicle)?
A: no significant effect; also recorded: No significant differences

Q: And the paired-pulse facilitation ([3]; TSA for 20 min vs vehicle)?
A: no significant effect; also recorded: unaffected

Q: And the input/output relationships ([3]; TSA for 3 h vs vehicle)?
A: no significant effect; also recorded: No significant differences

Q: What about the paired-pulse facilitation ([3]; TSA for 3 h vs vehicle) of the same compound?
A: no significant effect; also recorded: unaffected

Q: And the “baseline synaptic efficacy where LTP was not induced” value ([3]; continuous TSA, up to 3 h after start of treatment)?
A: no effect on synaptic transmission in the absence of high-frequency stimulation; also recorded: no effect on baseline synaptic efficacy

Q: And the “NMDA-R mediated synaptic transmission” value (NMDA-Rs)?
A: unaffected; also recorded: no short or long-term effects

Q: And the “levels of P-ERK2” value (ERK2)?
A: without affecting levels of P-ERK2; also recorded: no effect on P-ERK2

Q: What about the hyperacetylation (ras transformed cells) of the same compound?
A: induce hyperacetylation

Q: And the “morphology of ras transformed cells” value (ras transformed cells)?
A: cause reversion of ras transformed cells to normal morphology

Q: And the “performance in long-term memory tasks” value (animals deficient in CBP)?
A: improved the animals' performance in some long-term memory tasks
